For data set [1] the following is noted: in cyclohexane; cited from earlier work.
A short description of data set [2]: Superoxide trapping: reaction of nitrone with potassium superoxide and crown ether in benzene. As to conditions: for trapping of superoxide radical anion: in vitro, yielding UV-VIS identifiable orange products; for colour change / coloured product upon reaction with potassium superoxide: potassium superoxide (3 or 6 equiv.). From the text:
Thus, the amounts of potassium superoxide and crown ether were increased to 5 equivalents. Still no product was observed. The result could be due to the fact that not enough superoxide radical anion was present because of poor solubility of potassium superoxide. Therefore, 20 equivalents of potassium superoxide and crown ether were directly treated with nitrone 22. These conditions gave a product in very low yield which was impossible to identify. Finally, nitrone 22 was directly treated using 6 equivalents of potassium superoxide. […] The product was identified as aldehyde 67 by observing the aldehyde-proton signal and the up-field shifting of the ethyl signal of the azulene ring.
The detection of superoxide with azulenysilane mononitrone 23 was based on the previous method as described (vida supra). Six equivalents of potassium superoxide were used as before. As mentioned earlier, the previous reaction was monitored by observing an orange product on TLC. […] Based on the previous mechanism, it was expected to obtain the end product bis-aldehyde 72. However, ^1H NMR spectral information of the orange end product indicated the loss of the silyl group, and presence of only the mono-aldehyde. The low resolution mass spectrum detected a MH^+ of 448. Unfortunately, it was not possible to purify enough for the NMR characterization. […] It is believed that the superoxide spin adduct that formed was unstable and fragmented into another compound rather than the expected one. The loss of the silyl group could result after rearrangement via a nucleophilic attack on silicon by a second superoxide anion since an excess of superoxide anion was used and due to the high affinity of silicon towards oxygen.
The unidentified end product from superoxide radical anion with nitrone 23 led us to synthesize an analogue, the isoxazoline azulenylsilanenitrone 24, and test it for its possible utility in superoxide detection. Using the same method as described earlier, superoxide was solubilized in benzene by employing in acrown ether. The only difference in this case was the use of three equivalents of potassium superoxide instead of six equivalents. […] As in the previous case, aldehyde product 73 was expected to be formed. […] With HRMS and NMR spectral analyses, the orange product was identified as amide 74.
Guanylhydrazone nitrone 25 is a congener of nitrone 24. Incorporation of guanylhydrazone moiety may make it mitochondriotropic, and thereby render it useful to detect superoxide anion present in the mitochondria. […] The brownish orange end product was isolated and identified as amide 80 using low resolution mass spectrum (MH^+=654) which is analogous to the end product 74. In addition to amide 80, a trace of another orange product was also observed which is identified as amide 81 (MH^+=768) analogous to amide 79.
6 mg of nitrone 22 (0.0163 mmol) was mixed with 6.9 mg of potassium superoxide (0.097 mmol, 6 equiv.) and 8.6 mg of crown ether (0.032 mmol, 2 equiv.) and dissolved the mixture in 1 ml of benzene. The reaction was stirred for 3 hr at room temperature. The product was washed with 10 ml of saturated sodium chloride several times, dried over magnesium sulfate and concentrated. The mixture was purified by column chromatography using 5:5 hexane:ethylacetate to give 2.2 mg of crude 67 (43%). It was not possible to obtain 67 pure enough for definitive NMR characterization. […] When the same reaction was stirred for three days, another orange product was observed. […] Impossible to isolate this product in pure form, the structure was not identified.
20 mg of nitrone 24 was treated with 7.5 mg of potassium superoxide and 18.6 mg of crown ether in 1 ml of benzene. The reaction was stirred for 16 hr at room temperature. The mixture was then washed with 10 ml of saturated sodium chloride several times, dried and concentrated. […]

Data set [3] is described as follows: Fluorescence and quantum yield of superoxide trapping product in ethanol. To be noted: excitation wavelength 390 nm. Format: physicochemical. The method, then:
The UV-vis (ultra visible) absorption spectrum and fluorescence of chromotropic amide 74 was measured in ethanol. […] The fluorescence signal, indicated by red signal, was obtained by irradiating at the excitation wavelength 390 nm as shown in the spectrum. The wavelength dependence of the intensity of emitted light has been recorded at ˜490 nm (emission). The quantum yield of amide was measured at 2.7%. […] This, in addition to its chromotropic behavior, may bring an advantage over conventional cyclic nitrones which require ESR for superoxide detection.
All of the moisture sensitive reactions have been carried out using syringe septum rubber cap technique under N2 or Ar atmosphere or in a vial by flushing N2 or Ar gas into it. […] All of the reactions were monitored by TLC analysis (Whatman pre-coated silica gel F254 plates, 250 μm layer thickness), and visualization was achieved by 254 nm UV light. The crude reaction mixtures have been purified by column chromatography using 60 A (200-300 mess) on silica gel. ^1H and ^13C NMR spectra were recorded on Bruker AVANCE-400 spectrometer in CDCl3. Chemical shifts were measured in parts per million with residual solvent peak used as an internal standard. ^1H NMR spectra were run at 400 MHz and ^13C NMR spectra were recorder at […] with proton decoupled sequence. […] UV-vis spectrum was recorded using a Varian Cary 50 Bio spectrophotometer. […]

Data set [4] is classed as physicochemical. On the procedure: Solutol HS 15 is a non-ionic solubilizer and emulsifying agent produced from 1 mole of 12-hydroxystearic acids and 15 moles of ethylene oxide. […] To prepare the concentration of 0.64 mg/ml of nitrone 25 in 3:7 solutol HS 15:1% saline solution, 1 ml of solutol HS 15 was heated until it turned into a clear liquid and cooled to room temperature. Meanwhile, 2.1 mg of nitrone 25 was crushed to a fine powder and dissolved in 1 ml of clear solutol HS 15. It was then diluted with 2.3 ml of 1% saline solution in water with frequent shaking and warming. It was then cool to room temperature to obtained green solution. The green solution was kept in a freezer, and found to be stable. The aqueous formulation of nitrone 25 with solutol HS 15 is believed to be amenable for mitochondrial superoxide detection and other biological studies.

Where [5] appears, read: crown ether, benzene, room temperature.

With `C(#Cc1c2ccccc2c(C#Cc2ccccc2)c2ccccc12)c1ccccc1` [9,10-bis(phenylethynyl)anthracene], in data set [1], the “quantum yield (QY) of fluorescence standard” value was 1.0.
As to `CCc1c2cccccc-2c(C=O)c1O[Si](C)(C)C(C)(C)C` [aldehyde 67], in data set [2] (under the superoxide reaction conditions, decomposed as reaction proceeded), the “stability of aldehyde end product” value was “very unstable”.
As to `CC(C)(C)NC(=O)c1c2cccccc-2c2c(NC(C)(C)C)c(C(=O)c3ccccc3)c(=N)oc12` [amide 74], in data set [3], the fluorescence emission wavelength is reported as around 490 nm and the fluorescence quantum yield worked out at 2.7%.
Regarding `CCc1c2cccccc-2c(/C=[N+](\[O-])C(C)(C)C)c1[Si](C)(C)C(C)(C)C` [nitrone 22, 2-terbutyldimethylsilyl-1ethyl-3-azulenylnitrone], the “trapping of superoxide radical anion” value in data set [2] is on record as “trap superoxide radical anion efficiently”. Besides, in data set [2] (one to five equivalents of potassium superoxide and one equivalent of crown ether in benzene, room temperature), the reaction with superoxide entry is on record as “No reaction was observed”. For the same compound, in data set [2] (setting [5]), the “colour change / coloured product upon reaction with potassium superoxide” value was “less polar orange product”.
As for `CC(C)(C)/[N+]([O-])=C/c1c2cccccc-2c(C=O)c1[Si](C)(C)C(C)(C)C` [nitrone 23, 2-tert-butyldimethylsilyl-3-formyl-azulene-1-nitrone], the “trapping of superoxide radical anion” value in data set [2] is “trap superoxide radical anion efficiently”. Moreover, the “colour change / coloured product upon reaction with potassium superoxide” value in data set [2] (setting [5]) is on record as “turned completely from green to orange”. Besides, the “time for reaction mixture to turn completely from green to orange” value in data set [2] (six equivalents of potassium superoxide, crown ether, benzene) came out at 90 min.
As for `CC(C)(C)N1OC(c2ccccc2)=C(C#N)C1c1c2cccccc-2c(/C=[N+](\[O-])C(C)(C)C)c1[Si](C)(C)C(C)(C)C` (stereo not shown) [nitrone 24, 2-tert-butyl-3-[2-(tert-butyldimethyl-silanyl)-3-nitrone-azulen-1-yl]-5-phenyl-2,3-dihydro-isoxazole-4-carbonitrile], the “trapping of superoxide radical anion” value in data set [2] is “trap superoxide radical anion efficiently”. Besides, in data set [2] (setting [5]), the “colour change / coloured product upon reaction with potassium superoxide” value is “completely turned into orange solution”.
As to `[H]/N=C(\N)N/N=C/c1cccc(C#Cc2cccc(C3=C(C#N)C(c4c5cccccc-5c(/C=[N+](\[O-])C(C)(C)C)c4[Si](C)(C)C(C)(C)C)N(C(C)(C)C)O3)c2)c1` (stereo not shown) [nitrone 25, 2-tert-butyl-3-[2-(tert-butyldimethyl-silanyl)-3-nitrone-azulen-1-yl]-5-[3-(3-guanylhydrazone-phenylethynyl)-phenyl]-2,3-dihydro-isoxazole-4-carbonitrile], the “trapping of superoxide radical anion” value in data set [2] is on record as “trap superoxide efficiently”. Also, the “trapping of superoxide radical anion” value in data set [2] (listed as 25) is given as “trap superoxide radical anion efficiently”. In addition, in data set [4], the concentration in solution was 640 µg/mL, the “effect of solutol HS 15 on solubility in water” value was “increase the solubility”, the stability of solution entry was “stable” and the water solubility entry is listed as “poorly water soluble”.
As for `Cc1c2cccccc-2c(C)c1[Si](C)(C)C(C)(C)C` [nitrone 40, 2-tert-butyldimethylsilyl-1,3-dimethylazulene], the “colour change / coloured product upon reaction with potassium superoxide” value in data set [2] (setting [5]) is recorded as “turned into brownish orange”.
